According to the NIST ThermoML archive (doi:10.1021/je300045c):
Values joined by “and” are separate entries in the source; they are usually repeats but may differ in a detail not shown here. Equal entries are not always repeated.

Assays:
[1] = xn = mol fraction of the nth substance listed; conditions: 358.15 K, 101 kPa, Liquid; for viscosity: Falling or rolling sphere viscometry; for electrical conductivity: Alternating current cell with electrodes; for mass density: Vibrating tube method
[2] = molar heat capacity at constant pressure; wn = mass fraction of the nth substance listed; conditions: 358.15 K, 101 kPa, Liquid, Small sample (50 mg) DSC
[3] = 358.15 K, 101 kPa, Liquid

O [water] + CCCCn1cc[n+](C)c1.CS(=O)(=O)[O-]
Conditions | molar heat capacity at constant pressure [J/K/mol] | viscosity [mPa·s]
[1], x1 = 1 | – | 0.334
[2], w1 = 1 | 4.12 | –

CCCCn1cc[n+](C)c1.CS(=O)(=O)[O-] [1-butyl-3-methylimidazolium methanesulfonate] + O
Conditions | electrical conductivity [S/m] | mass density [kg/m3] | molar heat capacity at constant pressure | viscosity [mPa·s]
[1], x2 = 0 | 0.805 | 1134 | – | –
[1], x2 = 0.012 | 0.821 | 1134 | – | –
[1], x2 = 0.028 | 0.84 | 1134 | – | –
[1], x2 = 0.049 | 0.871 | 1134 | – | –
[1], x2 = 0.074 | 0.907 | 1133 | – | –
[1], x2 = 0.106 | 0.955 | 1133 | – | –
[1], x2 = 0.131 | 1 | 1132 | – | –
[1], x2 = 0.14 | – | 1132 | – | –
[1], x2 = 0.147 | 1.03 | 1132 | – | –
[1], x2 = 0.156 | 1.06 | – | – | –
[1], x2 = 0.159 | – | 1131 | – | –
[1], x2 = 0.185 | 1.12 | – | – | –
[1], x2 = 0.187 | – | 1130 | – | –
[1], x2 = 0.203 | 1.14 | 1130 | – | –
[1], x2 = 0.217 | 1.2 | – | – | –
[1], x2 = 0.224 | – | 1129 | – | –
[1], x2 = 0.252 | 1.29 | – | – | –
[1], x2 = 0.27 | 1.3 | 1129 | – | –
[1], x2 = 0.271 | – | 1128 | – | –
[1], x2 = 0.306 | 1.44 | – | – | –
[1], x2 = 0.329 | – | 1126 | – | –
[1], x2 = 0.358 | 1.61 | – | – | –
[1], x2 = 0.363 | 1.59 | 1126 | – | –
[1], x2 = 0.4 | – | 1125 | – | –
[1], x2 = 0.423 | 1.87 | – | – | –
[1], x2 = 0.457 | 2 | 1124 | – | –
[1], x2 = 0.478 | – | 1122 | – | –
[1], x2 = 0.495 | 2.22 | – | – | –
[1], x2 = 0.535 | 2.46 | – | – | –
[1], x2 = 0.555 | – | 1121 | – | –
[1], x2 = 0.556 | 2.58 | 1120 | – | –
[1], x2 = 0.559 | – | 1120.7 | – | 7.514
[1], x2 = 0.61 | 3.02 | – | – | –
[1], x2 = 0.628 | – | 1118 | – | –
[1], x2 = 0.643 | 3.14 | 1116 | – | –
[1], x2 = 0.654 | – | 1114.4 | – | 5.344
[1], x2 = 0.677 | 3.71 | – | – | –
[1], x2 = 0.692 | – | 1113 | – | –
[1], x2 = 0.702 | – | 1110.3 | – | 4.549
[1], x2 = 0.744 | 4.6 | 1106 | – | –
[1], x2 = 0.749 | – | 1104.1 | – | 3.616
[1], x2 = 0.75 | 4.81 | – | – | –
[1], x2 = 0.771 | – | 1105 | – | –
[1], x2 = 0.801 | – | 1094.9 | – | 2.795
[1], x2 = 0.836 | 6.82 | 1087 | – | –
[1], x2 = 0.842 | 7.27 | – | – | –
[1], x2 = 0.848 | – | 1085 | – | –
[1], x2 = 0.852 | – | 1081.2 | – | 2.048
[1], x2 = 0.878 | 9 | – | – | –
[1], x2 = 0.886 | – | 1072 | – | –
[1], x2 = 0.9 | – | 1062.3 | – | 1.486
[1], x2 = 0.925 | – | 1048.2 | – | 1.149
[1], x2 = 0.95 | – | 1029.7 | – | 0.834
[1], x2 = 0.975 | – | 1003.9 | – | 0.547
[2], w2 = 0.002 | – | – | 1.768 J/K/mol | –
[2], w2 = 0.014 | – | – | 1.793 J/K/mol | –
[2], w2 = 0.032 | – | – | 1.996 J/K/mol and 2.027 J/K/mol | –
[2], w2 = 0.087 | – | – | 2.267 J/K/mol | –
[2], w2 = 0.097 | – | – | 2.252 J/K/mol | –
[2], w2 = 0.15 | – | – | 2.244 J/K/mol | –
[2], w2 = 0.233 | – | – | 2.448 J/K/mol | –
[2], w2 = 0.429 | – | – | 2.926 J/K/mol | –

CCCCn1cc[n+](C)c1.CS(=O)(=O)[O-] [1-butyl-3-methylimidazolium methanesulfonate]
[3]
Conditions | electrical conductivity [S/m] | mass density [kg/m3]
Alternating current cell with electrodes | 0.805 | –
Vibrating tube method | – | 1134
